Measured values published in patent US8871753B2, “Macrocyclic compounds and their use as kinase inhibitors” (Incyte Corporation, priority 2008, dated 2014).
Where a name gives a salt, the structure may show the parent alone. Read-outs that look alike come from different tables or passages of the source.

What was measured:
Type in all cases: biochemical
TYK2 = TYK2 (Homo sapiens, UniProt P29597); assay: TYK2 kinase inhibition (Table A1)
[1] = biological target: T1, human JAK2 (a.a. 828-1132) (Homo sapiens, UniProt O60674); assay: In vitro JAK kinase assay (HTRF, phosphorylation of a biotinylated peptide), JAK2
T1 construct: JAK2 (a.a. 828-1132); His tag (N); made in house; host or cells: insect cells (baculovirus)
Outline: (§1)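 Kinase reactions ran at room temperature for 1 h with ATP matched per isoform (JAK1 90 μM, JAK2 30 μM, JAK3 3 μM). After an EDTA stop, the phosphorylated biotin-peptide was read by HTRF using Eu-Py20 and SA-APC after 40 min binding.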

[2] = biological target: T2, human JAK1 (a.a. 837-1142) (Homo sapiens, UniProt P23458); assay: In vitro JAK kinase assay (HTRF, phosphorylation of a biotinylated peptide), JAK1; details: read-out: JAK1 IC50
T2 construct: human JAK1 (a.a. 837-1142); His tag (N); made in house; host or cells: insect cells (baculovirus)
Outline: as §1

[3] = biological target: T3, human JAK3 (a.a. 781-1124) (Homo sapiens, UniProt P52333); assay: In vitro JAK kinase assay (HTRF, phosphorylation of a biotinylated peptide), JAK3
T3 construct: JAK3 (a.a. 781-1124); His tag (N); made in house; host or cells: insect cells (baculovirus)
Outline: as §1

Sequence of TYK2 (P29597 whole entry): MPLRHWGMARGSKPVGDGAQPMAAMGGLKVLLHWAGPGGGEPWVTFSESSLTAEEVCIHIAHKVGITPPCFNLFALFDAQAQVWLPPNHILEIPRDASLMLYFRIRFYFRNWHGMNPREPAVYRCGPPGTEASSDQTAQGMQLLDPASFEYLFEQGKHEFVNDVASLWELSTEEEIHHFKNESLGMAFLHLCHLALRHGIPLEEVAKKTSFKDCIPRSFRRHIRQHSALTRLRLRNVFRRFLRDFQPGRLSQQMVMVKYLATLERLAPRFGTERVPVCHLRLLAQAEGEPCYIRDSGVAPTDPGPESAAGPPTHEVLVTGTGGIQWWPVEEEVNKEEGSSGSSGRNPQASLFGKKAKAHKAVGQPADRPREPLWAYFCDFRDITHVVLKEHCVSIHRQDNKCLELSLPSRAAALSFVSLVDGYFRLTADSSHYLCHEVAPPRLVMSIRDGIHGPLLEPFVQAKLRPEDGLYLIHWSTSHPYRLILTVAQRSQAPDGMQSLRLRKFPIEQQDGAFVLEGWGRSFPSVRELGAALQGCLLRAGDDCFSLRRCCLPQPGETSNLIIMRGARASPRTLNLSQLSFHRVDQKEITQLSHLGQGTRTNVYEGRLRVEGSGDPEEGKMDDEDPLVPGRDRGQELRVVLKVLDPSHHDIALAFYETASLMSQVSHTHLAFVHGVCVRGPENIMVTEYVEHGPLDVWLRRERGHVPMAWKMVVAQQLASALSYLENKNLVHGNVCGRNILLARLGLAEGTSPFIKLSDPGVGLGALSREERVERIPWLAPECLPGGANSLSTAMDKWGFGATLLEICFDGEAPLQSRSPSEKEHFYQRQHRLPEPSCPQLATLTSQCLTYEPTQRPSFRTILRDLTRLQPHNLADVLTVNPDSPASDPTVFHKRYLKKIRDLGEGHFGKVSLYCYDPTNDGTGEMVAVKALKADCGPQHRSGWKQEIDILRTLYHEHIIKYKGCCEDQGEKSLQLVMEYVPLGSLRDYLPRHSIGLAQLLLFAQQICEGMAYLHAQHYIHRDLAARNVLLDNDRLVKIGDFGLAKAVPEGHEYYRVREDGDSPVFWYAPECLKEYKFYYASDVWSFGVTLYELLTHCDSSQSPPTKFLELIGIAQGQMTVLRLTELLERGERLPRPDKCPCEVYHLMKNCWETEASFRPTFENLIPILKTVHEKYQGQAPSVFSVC
T2 sequence (P23458 849-1154): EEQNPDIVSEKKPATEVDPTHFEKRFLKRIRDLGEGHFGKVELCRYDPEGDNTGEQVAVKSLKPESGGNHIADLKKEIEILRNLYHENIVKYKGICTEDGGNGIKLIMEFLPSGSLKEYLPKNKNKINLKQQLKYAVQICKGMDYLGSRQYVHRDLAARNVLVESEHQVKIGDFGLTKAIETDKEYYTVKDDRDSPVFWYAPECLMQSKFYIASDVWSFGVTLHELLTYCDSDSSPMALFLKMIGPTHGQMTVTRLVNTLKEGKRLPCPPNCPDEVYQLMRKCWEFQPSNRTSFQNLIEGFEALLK
T3 sequence (P52333 781-1124): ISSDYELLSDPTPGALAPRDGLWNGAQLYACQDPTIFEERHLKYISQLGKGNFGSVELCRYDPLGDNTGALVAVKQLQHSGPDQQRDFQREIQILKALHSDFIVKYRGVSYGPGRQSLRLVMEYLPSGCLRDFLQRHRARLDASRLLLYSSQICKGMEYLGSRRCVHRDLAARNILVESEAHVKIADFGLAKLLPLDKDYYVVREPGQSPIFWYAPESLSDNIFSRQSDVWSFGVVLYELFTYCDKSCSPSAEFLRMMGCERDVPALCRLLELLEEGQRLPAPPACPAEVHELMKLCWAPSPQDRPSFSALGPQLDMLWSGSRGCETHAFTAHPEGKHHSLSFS
T1 sequence (O60674 828-1132): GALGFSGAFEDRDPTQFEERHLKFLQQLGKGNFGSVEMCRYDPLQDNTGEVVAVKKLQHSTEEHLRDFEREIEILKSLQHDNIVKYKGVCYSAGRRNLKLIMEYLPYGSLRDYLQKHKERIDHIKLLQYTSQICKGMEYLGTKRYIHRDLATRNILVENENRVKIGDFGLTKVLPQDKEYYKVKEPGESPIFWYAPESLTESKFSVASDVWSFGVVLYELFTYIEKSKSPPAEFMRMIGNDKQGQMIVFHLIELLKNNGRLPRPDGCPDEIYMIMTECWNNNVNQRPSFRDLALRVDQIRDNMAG

SMILES | IC50 (TYK2; Table D1) | IC50 ([1]; Table D1) | IC50 ([2]; Table D1) | IC50 ([3]; Table D1) | IC50 (TYK2) | IC50 [1] | IC50 [2] | IC50 [3]
O=C(CC1CN(C(=O)c2nccs2)C1)Nc1ccc2cc1CCc1cncc(c1)Nc1ncc(Cl)c(n1)N2 [Example D145, N-[6-Chloro-2,4,8,18,22-pentaazatetracyclo[14.3.1.1(3,7).1(9,13)]docosa-1(20),3(22),4,6,9(21),10,12,16,18-nonaen-12-yl]-2-[1-(1,3-thiazol-2-ylcarbonyl)azetidin-3-yl]acetamide bis(trifluoroacetate)] | 775 nM | 123 nM | 31 nM | > 1000 nM | – | – | – | –
O=C(COc1ccc2cc1CCc1cncc(c1)Nc1ncc(Cl)c(n1)N2)N1CCN(c2cnccn2)CC1 [Example D232, 6-Chloro-12-[2-oxo-2-(4-pyrazin-2-ylpiperazin-1-yl)ethoxy]-2,4,8,18,22-pentaazatetracyclo[14.3.1.1(3,7).1(9,13)]docosa-1(20),3(22),4,6,9(21),10,12,16,18-nonaene tris(trifluoroacetate)] | > 400 nM | 160 nM | 32 nM | > 400 nM | – | – | – | –
O=C(Cc1ccncc1)Nc1ccc2cc1CCc1cccc(c1)Nc1ncc(Cl)c(n1)N2 [Example C40, N-[6-Chloro-2,4,8,22-tetraazatetracyclo[14.3.1.1(3,7).1(9,13)]docosa-1(20),3(22),4,6,9(21),10,12,16,18-nonaen-12-yl]-2-pyridin-4-ylacetamide bis(trifluoroacetate)] | – | – | – | – | 291 nM | 56 nM | 62 nM | 804 nM
O=C(COc1ccc2cc1CCc1cncc(c1)Nc1ncc(Cl)c(n1)N2)N1CCN(Cc2cccnc2)CC1 [Example D255, 6-Chloro-12-{2-oxo-2-[4-(pyridin-3-ylmethyl)piperazin-1-yl]ethoxy}-2,4,8,18,22-pentaazatetracyclo[14.3.1.1(3,7).1(9,13)]docosa-1(20),3(22),4,6,9(21),10,12,16,18-nonaene tris(trifluoroacetate)] | > 400 nM | 226 nM | 90 nM | > 400 nM | – | – | – | –
N#Cc1ccccc1S(=O)(=O)N1CCN(C(=O)COc2ccc3cc2CCc2cncc(c2)Nc2ncc(Cl)c(n2)N3)CC1 [Example D254, 2-{[4-({[6-Chloro-2,4,8,18,22-pentaazatetracyclo[14.3.1.1(3,7).1(9,13)]docosa-1(20),3(22),4,6,9(21),10,12,16,18-nonaen-12-yl]oxy}acetyl)piperazin-1-yl]sulfonyl}benzonitrile bis(trifluoroacetate)] | 356 nM | 49 nM | 8.1 nM | > 400 nM | – | – | – | –
Clc1cnc2nc1Nc1ccc(OCC3CCNCC3)c(c1)CCc1cncc(c1)N2 [Example D225, 6-Chloro-12-(piperidin-4-ylmethoxy)-2,4,8,18,22-pentaazatetracyclo[14.3.1.1(3,7).1(9,13)]docosa-1(20),3(22),4,6,9(21),10,12,16,18-nonaene tris(trifluoroacetate)] | > 400 nM | > 400 nM | 180 nM | > 400 nM | – | – | – | –
O=C(Cc1csc2ccccc12)Nc1ccc2cc1CCc1cccc(c1)Nc1ncc(Cl)c(n1)N2 [Example C35, 2-(1-Benzothien-3-yl)-N-[6-chloro-2,4,8,22-tetraazatetracyclo[14.3.1.1(3,7).1(9,13)]docosa-1(20),3(22),4,6,9(21),10,12,16,18-nonaen-12-yl]acetamide trifluoroacetate] | – | – | – | – | 549 nM | 203 nM | 232 nM | > 10000 nM
CC(=O)N1CCC[C@H](CC(=O)Nc2ccc3cc2CCc2cncc(c2)Nc2ncc(Cl)c(n2)N3)C1 [Example D205, 2-[(3R)-1-Acetylpiperidin-3-yl]-N-[6-chloro-2,4,8,18,22-pentaazatetracyclo[14.3.1.1(3,7).1(9,13)]docosa-1(20),3(22),4,6,9(21),10,12,16,18-nonaen-12-yl]acetamide bis(trifluoroacetate)] | 25 nM | 15 nM | 7.1 nM | 107 nM | – | – | – | –
N#Cc1ccc(N2CCN(C(=O)COc3ccc4cc3CCc3cncc(c3)Nc3ncc(Cl)c(n3)N4)CC2)nc1 [Example D239, 6-[4-({[6-Chloro-2,4,8,18,22-pentaazatetracyclo[14.3.1.1(3,7).1(9,13)]docosa-1(20),3(22),4,6,9(21),10,12,16,18-nonaen-12-yl]oxy}acetyl)piperazin-1-yl]nicotinonitrile tris(trifluoroacetate)] | > 400 nM | 208 nM | 101 nM | > 400 nM | – | – | – | –
N#Cc1ccccc1NC(=O)N1CCC(CCOc2ccc3cc2CCc2cncc(c2)Nc2ncc(Cl)c(n2)N3)CC1 [Example D173, 4-(2-{[6-Chloro-2,4,8,18,22-pentaazatetracyclo[14.3.1.1(3,7).1(9,13)]docosa-1(20),3(22),4,6,9(21),10,12,16,18-nonaen-12-yl]oxy}ethyl)-N-(2-cyanophenyl)piperidine-1-carboxamide bis(trifluoroacetate)] | > 400 nM | > 400 nM | 100 nM | > 400 nM | – | – | – | –
NS(=O)(=O)N1CCN(C(=O)COc2ccc3cc2CCc2cncc(c2)Nc2ncc(Cl)c(n2)N3)CC1 [Example D268, 4-({[6-Chloro-2,4,8,18,22-pentaazatetracyclo[14.3.1.1(3,7).1(9,13)]docosa-1(20),3(22),4,6,9(21),10,12,16,18-nonaen-12-yl]oxy}acetyl)piperazine-1-sulfonamide bis(trifluoroacetate)] | 49 nM | 36 nM | 15 nM | > 400 nM | – | – | – | –
O=C(COc1ccc2cc1CCc1cncc(c1)Nc1ncc(Cl)c(n1)N2)N1CCN(S(=O)(=O)c2ccccc2F)CC1 [Example D253, 6-Chloro-12-(2-{4-[(2-fluorophenyl)sulfonyl]piperazin-1-yl}-2-oxoethoxy)-2,4,8,18,22-pentaazatetracyclo[14.3.1.1(3,7).1(9,13)]docosa-1(20),3(22),4,6,9(21),10,12,16,18-nonaene bis(trifluoroacetate)] | > 400 nM | 67 nM | 35 nM | > 400 nM | – | – | – | –
O=C(Cn1c(=O)oc2c3cc(cc21)Nc1nc(ncc1Cl)Nc1cccc(c1)CC3)NCc1ccccc1 [Example D186, N-Benzyl-2-[4-chloro-19-oxo-18-oxa-2,6,8,20,25-pentaazapentacyclo[14.6.1.1(3,7).1(9,13).0(17,21)]pentacosa-1(23),3(25),4,6,9(24),10,12,16,21-nonaen-20-yl]acetamide trifluoroacetate] | 792 nM | 40 nM | 53 nM | 162 nM | – | – | – | –
Cc1occc1NC(=O)N1CCC(CCOc2ccc3cc2CCc2cncc(c2)Nc2ncc(Cl)c(n2)N3)CC1 [Example D164, 4-(2-{[6-Chloro-2,4,8,18,22-pentaazatetracyclo[14.3.1.1(3,7).1(9,13)]docosa-1(20),3(22),4,6,9(21),10,12,16,18-nonaen-12-yl]oxy}ethyl)-N-(2-methyl-3-furyl)piperidine-1-carboxamide bis(trifluoroacetate)] | > 400 nM | 75 nM | 39 nM | > 400 nM | – | – | – | –
O=C(C[C@@H]1CCCN(C(=O)Nc2ccccc2)C1)Nc1ccc2cc1CCc1cccc(c1)Nc1ncc(Cl)c(n1)N2 [Example D196, (3S)-3-(2-{[6-Chloro-2,4,8,22-tetraazatetracyclo[14.3.1.1(3,7).1(9,13)]docosa-1(20),3(22),4,6,9(21),10,12,16,18-nonaen-12-yl]amino}-2-oxoethyl)-N-phenylpiperidine-1-carboxamide trifluoroacetate] | 31 nM | 6.4 nM | 11 nM | 57 nM | – | – | – | –
O=C(COc1ccc2cc1CCc1cncc(c1)Nc1ncc(Cl)c(n1)N2)N1CCN(c2cccc(Cl)n2)CC1 [Example D240, 6-Chloro-12-{2-[4-(6-chloropyridin-2-yl)piperazin-1-yl]-2-oxoethoxy}-2,4,8,18,22-pentaazatetracyclo[14.3.1.1(3,7).1(9,13)]docosa-1(20),3(22),4,6,9(21),10,12,16,18-nonaene tris(trifluoroacetate)] | > 400 nM | > 400 nM | 255 nM | > 400 nM | – | – | – | –
O=C(COc1ccc2cc1CCc1cncc(c1)Nc1ncc(Cl)c(n1)N2)N1CCN(C(=O)Nc2ccccc2)CC1 [Example D264, 4-({[6-Chloro-2,4,8,18,22-pentaazatetracyclo[14.3.1.1(3,7).1(9,13)]docosa-1(20),3(22),4,6,9(21),10,12,16,18-nonaen-12-yl]oxy}acetyl)-N-phenylpiperazine-1-carboxamide bis(trifluoroacetate)] | 300 nM | 22 nM | 6.1 nM | > 400 nM | – | – | – | –
Cc1nc(C)c(CC(=O)Nc2ccc3cc2CCc2cccc(c2)Nc2ncc(Cl)c(n2)N3)s1 [Example C43, N-[6-Chloro-2,4,8,22-tetraazatetracyclo[14.3.1.1(3,7).1(9,13)]docosa-1(20),3(22),4,6,9(21),10,12,16,18-nonaen-12-yl]-2-(2,4-dimethyl-1,3-thiazol-5-yl)acetamide trifluoroacetate] | – | – | – | – | 88 nM | 31 nM | 22 nM | 1140 nM
